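Cultured in 96-well plates, cells were exposed to test compound for 48 hours across five concentrations. GI50 marks 50% less growth. TGI: total growth inhibition.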
Columns and labels:
Assay in all cases: inhibition of tumour cell growth, NCI panel, 48 h
[1] = system: CCRF-CEM leukemia
[2] = system: HCC-2998 colon
[3] = system: HCT-15 colon
[4] = system: MALME-3M melanoma
[5] = system: NCI-H522 lung
[6] = system: OVCAR-3 ovarian
[7] = system: SW-620 colon
[8] = system: NCI-H460 lung
[9] = system: MDA-MB-231 breast
[10] = system: NCI/ADR-RES ovarian

Row | Compound | TGI [1] [µM] | TGI [2] [µM] | TGI [3] [µM] | TGI [4] [µM] | TGI [5] [µM] | TGI [6] [µM] | TGI [7] [µM] | TGI [8] [µM] | GI50 [2] [µM] | GI50 [3] [µM] | GI50 [4] [µM] | GI50 [9] [µM] | TGI [9] [µM] | GI50 [8] [µM] | GI50 [5] [µM] | GI50 [10] [µM] | TGI [10] [µM] | GI50 [6] [µM] | GI50 [7] [µM]
1 | O=C(Nc1c(-c2nc3ccccc3[nH]2)sc(=S)n1-c1ccccc1)c1ccccc1 | > 100 | > 100 | > 100 | > 100 | > 100 | > 100 | > 100 |  |  |  |  |  |  |  |  |  |  |  | 
2 | Cn1c(CCC#N)nc2ccc(Br)cc2c1=O | > 100 | > 100 | > 100 | > 100 | > 100 |  | > 100 | > 100 |  |  |  |  |  |  |  |  |  |  | 
3 | COC(OC)c1cccc2c1C1(O)CCC3(CC21)OCCCCO3 (centres undefined) | > 100 | > 100 | > 100 | > 100 | > 100 | > 100 |  | > 100 |  |  |  |  |  |  |  |  |  |  | 
4 | Cc1ccccc1C(=O)Oc1ccc(Oc2ccccc2)cc1 | > 100 | > 100 | > 100 | > 100 |  | > 100 | > 100 | > 100 |  |  |  |  |  |  |  |  |  |  | 
5 | Cc1ccc(C)c(NC(=O)c2cc(-c3ccc([N+](=O)[O-])cc3)nc(N)n2)c1 | > 100 | > 100 | > 100 | > 100 | > 100 | > 100 | > 100 | > 100 |  |  |  |  |  |  |  |  |  |  | 
6 | Cc1ccc(NC(=O)/C(CC(=O)c2c[n+](=O)c3ccccc3n2O)=N\NC(=O)C[n+]2ccccc2)cc1 | > 100 | > 100 | > 100 | > 100 | > 100 | > 100 | > 100 | > 100 |  |  |  |  |  |  |  |  |  |  | 
7 | O=C(O)/C(=C/c1ccccc1[N+](=O)[O-])c1ccccc1 |  | > 100 | > 100 |  | > 100 | > 100 | > 100 | > 100 |  |  |  |  |  |  |  |  |  |  | 
8 | O=C(Nc1cc(C(F)(F)F)ccc1F)Nc1n[nH]c2ccccc12 |  | > 100 | > 100 | > 100 | > 100 | > 100 | > 100 | > 100 | > 100 | > 100 | > 100 | > 100 | > 100 | > 100 | > 100 | > 100 | > 100 | > 100 | > 100
9 | CC(c1ccc(Br)cc1)C(C(=O)O)C(=O)O (centres undefined) | > 100 | > 100 | > 100 | > 100 | > 100 | > 100 | > 100 | > 100 |  |  |  |  |  |  |  |  |  |  | 
10 | O=c1[nH]c(Br)nc2c(Br)c[nH]c12 | > 100 |  | > 100 | > 100 | > 100 | > 100 | > 100 | > 100 |  |  |  |  |  |  |  |  |  |  | 
11 | CC(C)C(=O)N[C@@H](C)C(=O)N(Cc1ccc2ccccc2c1)N=O | > 100 | > 100 | > 100 | > 100 |  | > 100 | > 100 | > 100 |  |  |  |  |  |  |  |  |  |  | 
12 | CCCCCCCCCCCC(=O)OCC1OC(n2cc(F)c(=O)[nH]c2=O)C(N)C(OC(=O)CCCCCCCCCCC)C1O (centres undefined) | > 100 | > 100 | > 100 | > 100 | > 100 | > 100 | > 100 | > 100 |  |  |  |  |  |  |  |  |  |  | 
13 | CC(=O)OC12c3ccccc3C1CCCCCC21OCCCO1 (centres undefined) | > 100 | > 100 | > 100 |  | > 100 | > 100 |  | > 100 |  |  |  |  |  |  |  |  |  |  | 
14 | N=C(c1ccccc1)N(O)C1CCCCC1 |  | > 100 |  | > 100 | > 100 |  | > 100 | > 100 |  |  |  |  |  |  |  |  |  |  | 
15 | O=S1(=O)CCN(Cc2ccccn2)CC1 |  | > 100 | > 100 | > 100 | > 100 | 9.94 | > 100 | > 100 |  |  |  |  | > 100 |  |  |  | > 100 |  | 
16 | N=C(N)SCCc1cn2ccccc2n1 | > 100 | > 100 | > 100 | > 100 | > 100 | > 100 | > 100 | > 100 |  |  |  |  |  |  |  |  |  |  | 
17 | O=C(OCCOCBr)c1ccccc1 | > 100 | > 100 | > 100 | > 100 | > 100 | > 100 | > 100 | > 100 |  |  |  |  |  |  |  |  |  |  | 
18 | Nc1ccc(Nc2nc(F)nc(-c3c4ccccc4c4n3CCS4)n2)cc1 | 62.2 | 44.8 | 25.5 | 31.6 | 28.6 | 34.7 | 27.9 |  |  |  |  |  |  |  |  |  |  |  | 
19 | CC(=O)OC1CCn2nnc(COC(=O)NC(C)C)c21 (centres undefined) |  | > 100 | > 100 | > 100 | > 100 | > 100 | > 100 | > 100 |  |  |  |  |  |  |  |  |  |  | 
20 | COc1ccc2c(c1)CC[C@@H]1[C@@H]2CC[C@@]2(C)[C@H]1CC1(CCCCC1)[C@@H]2O |  | 28.5 | 10.2 | 36.3 | 36.6 | 31.1 |  | 15.4 | 14.1 | 2.59 | 18.8 | 12.9 | 32.8 | 3.82 | 17.9 | 14.8 | 30.7 | 15.1 | 
